Experimental data reported in ChEMBL document CHEMBL1212772.

Key:
[1] = test system: Klebsiella oxytoca; assay: Activity of Klebsiella oxytoca Beta-lactamase K1 relative to Cephaloridine
[2] = biological target: Beta-lactamase (Escherichia coli) (UniProt Q53TY8); assay: Kcat/Km ratio of Escherichia coli CMY-2 relative to Cephaloridine
[3] = biological target: Carbapenem-hydrolyzing beta-lactamase KPC (Klebsiella pneumoniae) (UniProt Q9F663); assay: Activity of Klebsiella pneumoniae KPC-2 relative to Cephaloridine
[4] = biological target: T1, Beta-lactamase IMP-1 (Pseudomonas aeruginosa) (UniProt Q8G9Q0); assay: Kcat/Km ratio of Pseudomonas aeruginosa IMP-1 relative to Cephaloridine
T1 sequence (whole entry): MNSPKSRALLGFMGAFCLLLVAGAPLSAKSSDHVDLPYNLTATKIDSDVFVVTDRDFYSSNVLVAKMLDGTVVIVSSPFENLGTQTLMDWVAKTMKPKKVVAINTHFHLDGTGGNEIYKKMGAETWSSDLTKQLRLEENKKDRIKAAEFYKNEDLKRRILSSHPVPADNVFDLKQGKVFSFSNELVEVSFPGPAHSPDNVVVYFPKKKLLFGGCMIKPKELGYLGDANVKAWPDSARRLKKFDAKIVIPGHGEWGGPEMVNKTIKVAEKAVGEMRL

[5] = biological target: T1, Beta-lactamase IMP-1 (Pseudomonas aeruginosa); assay: Activity of Pseudomonas aeruginosa IMP-1 relative to Cephaloridine
[6] = test system: Escherichia coli; assay: Kcat/Km ratio of Klebsiella pneumoniae Beta-lactamase TEM-26 relative to Cephaloridine
[7] = biological target: T2, Beta-lactamase SHV-1 (Klebsiella pneumoniae) (UniProt P0AD64); assay: Activity of Klebsiella pneumoniae SHV-1 relative to Cephaloridine
T2 sequence (whole entry): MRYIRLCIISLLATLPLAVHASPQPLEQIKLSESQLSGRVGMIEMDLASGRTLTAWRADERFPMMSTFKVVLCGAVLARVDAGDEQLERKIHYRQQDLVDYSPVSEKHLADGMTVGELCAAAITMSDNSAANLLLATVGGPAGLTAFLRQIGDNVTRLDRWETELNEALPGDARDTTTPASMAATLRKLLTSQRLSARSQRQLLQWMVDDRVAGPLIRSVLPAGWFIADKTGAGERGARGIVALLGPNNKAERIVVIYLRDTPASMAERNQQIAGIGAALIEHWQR

[8] = test system: Escherichia coli; assay: Kcat/Km ratio of Klebsiella pneumoniae Beta-lactamase TEM-26
[9] = biological target: Beta-lactamase (Pseudomonas aeruginosa (strain ATCC 15692 / PAO1 / 1C / PRS 101 / LMG12228)) (UniProt P24735); assay: Kcat/Km ratio of Pseudomonas aeruginosa AmpC relative to Cephaloridine
[10] = biological target: Carbapenem-hydrolyzing beta-lactamase KPC (Klebsiella pneumoniae) (UniProt Q9F663); assay: Kcat/Km ratio of Klebsiella pneumoniae KPC-2 relative to Cephaloridine
[11] = test system: Klebsiella oxytoca; assay: Kcat/Km ratio of Klebsiella oxytoca Beta-lactamase K1
[12] = test system: Klebsiella oxytoca; assay: Kcat/Km ratio of Klebsiella oxytoca Beta-lactamase K1 relative to Cephaloridine
[13] = biological target: T2, Beta-lactamase SHV-1 (Klebsiella pneumoniae); assay: Kcat/Km ratio of Klebsiella pneumoniae SHV-1 relative to Cephaloridine
[14] = test system: Escherichia coli; assay: Activity of Klebsiella pneumoniae Beta-lactamase TEM-26 relative to Cephaloridine
[15] = biological target: Beta-lactamase OXA-23 (Acinetobacter baumannii) (UniProt Q9L4P2); assay: Activity of Acinetobacter baumannii OXA-23 relative to Cephaloridine
[16] = biological target: Beta-lactamase OXA-10 (Pseudomonas aeruginosa) (UniProt P14489); assay: Activity of Pseudomonas aeruginosa OXA-10 relative to Cephaloridine
[17] = test system: Klebsiella oxytoca; assay: Activity of Klebsiella oxytoca Beta-lactamase K1
[18] = test system: Klebsiella pneumoniae; assay: Activity of Klebsiella pneumoniae Beta-lactamase TEM-26
[19] = biological target: T3, Carbapenem-hydrolyzing beta-lactamase SME-3 (Serratia marcescens) (UniProt Q6PRG8); assay: Kcat/Km ratio of Serratia marcescens SME-3 relative to Cephaloridine
T3 sequence (whole entry): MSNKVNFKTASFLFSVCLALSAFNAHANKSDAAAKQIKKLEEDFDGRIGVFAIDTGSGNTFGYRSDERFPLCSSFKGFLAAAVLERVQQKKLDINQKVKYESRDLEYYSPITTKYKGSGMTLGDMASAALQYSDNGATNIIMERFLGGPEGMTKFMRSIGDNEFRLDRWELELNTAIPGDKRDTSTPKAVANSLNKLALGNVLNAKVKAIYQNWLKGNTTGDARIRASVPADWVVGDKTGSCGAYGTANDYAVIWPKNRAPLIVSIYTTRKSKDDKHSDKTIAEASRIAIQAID

[20] = biological target: Beta-lactamase TEM (Escherichia coli) (UniProt P62593); assay: Activity of Escherichia coli TEM-1 relative to Cephaloridine
[21] = biological target: Beta-lactamase CTX-M (Escherichia coli) (UniProt Q9EXV5); assay: Activity of Escherichia coli CTX-M-15 relative to Cephaloridine
[22] = biological target: Beta-lactamase OXA-23 (Acinetobacter baumannii) (UniProt Q9L4P2); assay: Kcat/Km ratio of Acinetobacter baumannii OXA-23 relative to Cephaloridine
[23] = biological target: Beta-lactamase (Enterobacter cloacae) (UniProt P05364); assay: Kcat/Km ratio of Enterobacter cloacae AmpC relative to Cephaloridine
[24] = biological target: Beta-lactamase TEM (Escherichia coli) (UniProt P62593); assay: Kcat/Km ratio of Escherichia coli TEM-1 relative to Cephaloridine
[25] = biological target: Beta-lactamase (Enterobacter cloacae) (UniProt P05364); assay: Activity of Enterobacter cloacae AmpC relative to Cephaloridine
[26] = biological target: Beta-lactamase (Pseudomonas aeruginosa (strain ATCC 15692 / PAO1 / 1C / PRS 101 / LMG12228)) (UniProt P24735); assay: Activity of Pseudomonas aeruginosa AmpC relative to Cephaloridine
[27] = biological target: Beta-lactamase (Escherichia coli) (UniProt Q53TY8); assay: Activity of Escherichia coli CMY-2 relative to Cephaloridine
[28] = biological target: T3, Carbapenem-hydrolyzing beta-lactamase SME-3 (Serratia marcescens); assay: Activity of Serratia marcescens SME-3 relative to Cephaloridine
[29] = biological target: Beta-lactamase CTX-M (Escherichia coli) (UniProt Q9EXV5); assay: Kcat/Km ratio of Escherichia coli CTX-M-15 relative to Cephaloridine
[30] = biological target: Beta-lactamase VIM-2 (Pseudomonas aeruginosa) (UniProt Q9K2N0); assay: Kcat/Km ratio of Pseudomonas aeruginosa VIM-2 relative to Cephaloridine
[31] = biological target: Beta-lactamase VIM-2 (Pseudomonas aeruginosa) (UniProt Q9K2N0); assay: Activity of Pseudomonas aeruginosa VIM-2 relative to Cephaloridine
[32] = biological target: Beta-lactamase OXA-10 (Pseudomonas aeruginosa) (UniProt P14489); assay: Kcat/Km ratio of Pseudomonas aeruginosa OXA-10 relative to Cephaloridine
[33] = test system: C[C@@H](O)[C@H]1C(=O)N2C(C(=O)O)=C(S[C@@H]3CN[C@H](CNS(N)(=O)=O)C3)[C@H](C)[C@H]12; assay: Activity of Pseudomonas aeruginosa VIM-2
[34] = test system: C[C@@H](O)[C@H]1C(=O)N2C(C(=O)O)=C(S[C@@H]3CN[C@H](CNS(N)(=O)=O)C3)[C@H](C)[C@H]12; assay: Kcat/Km ratio of Pseudomonas aeruginosa VIM-2

Compound | Activity [1] | Activity [2] | Activity [3] | Activity [4] | Activity [5] | Activity [6] | kcat/Km [8] | Activity [9] | Activity [10] | kcat/Km [11] | Activity [12] | Activity [14] | Activity [15] | Activity [16] | Km [17] | kcat [17] | Km [18] | kcat [18] | Activity [26] | Activity [27] | other results
CC(C)(O/N=C(\C(=O)N[C@@H]1C(=O)N2C(C(=O)[O-])=C(C[n+]3ccccc3)CS[C@H]12)c1csc(N)n1)C(=O)O | 0.0027% | 0.033% | 0.097% | 5.7% | 14% | 130% | 730000 M⁻¹ s⁻¹ | < 0.48% | 0.22% | 93 M⁻¹ s⁻¹ | 0.0021% | 260% | < 0.00093% | < 0.059% | 140 µM | 0.013 s⁻¹ | 130 µM | 95 s⁻¹ |  |  | Activity [7]: 0.0024%; Activity [13]: 0.00077%
C[C@@H](O)[C@H]1C(=O)N2C(C(=O)O)=C(SCCNC=N)C[C@H]12 | 0.019% |  | 7.9% | 45% | 70% | 0.03% | 170 M⁻¹ s⁻¹ | < 7% | 45% | 1800 M⁻¹ s⁻¹ | 0.04% | 0.0065% | 0.2% | < 0.088% | 51 µM | 0.091 s⁻¹ | 14 µM | 0.0024 s⁻¹ | < 0.031% | 0.0044% | Activity [19]: 83%; Activity [20]: 0.00097%; Activity [21]: 0.09%; Activity [22]: 14200%; Activity [7]: 0.013%; Activity [23]: 0.0066%; Activity [24]: 0.072%; Activity [25]: 0.00048%; Activity [28]: 31%; Activity [13]: 0.092%; Activity [29]: 0.029%
C[C@@H](O)[C@H]1C(=O)N2C(C(=O)O)=C(S[C@@H]3CN[C@H](CNS(N)(=O)=O)C3)[C@H](C)[C@H]12 |  | 0.67% |  | 28% | 41% | 0.0082% | 46 M⁻¹ s⁻¹ | < 1.2% | 45% | 150 M⁻¹ s⁻¹ | 0.0033% | 0.001% | 0.044% | < 0.046% | 45 µM | 0.0068 s⁻¹ | 8 µM | 0.00037 s⁻¹ | < 0.0063% | 1e-05% | Activity [19]: 10%; Activity [20]: 2.1e-05%; Activity [21]: 0.00095%; Activity [22]: 31%; Activity [7]: 0.00073%; Activity [23]: 0.00059%; Activity [24]: 0.0022%; Activity [25]: 1.7e-05%; Activity [28]: 0.21%; Activity [13]: 0.027%; Activity [30]: 34%; Activity [29]: 0.0051%; Activity [31]: 2%
CC1(C)S[C@@H]2[C@H](NC(=O)Cc3ccccc3)C(=O)N2[C@H]1C(=O)O | 160% | 420% | 15% | 19% | 520% | 2700% | 1.5e+07 M⁻¹ s⁻¹ | 1% | 260% | 2e+07 M⁻¹ s⁻¹ | 440% | 210% | 120% | 540% | 40 µM | 800 s⁻¹ | 5 µM | 76 s⁻¹ | 46% | 3.1% | Activity [22]: 12000%; Activity [32]: 14000%
O=C(Cc1cccs1)N[C@@H]1C(=O)N2C(C(=O)[O-])=C(C[n+]3ccccc3)CS[C@H]12 |  |  |  |  |  |  | 560000 M⁻¹ s⁻¹ |  |  | 4.5e+06 M⁻¹ s⁻¹ |  |  |  |  | 110 µM | 490 s⁻¹ | 66 µM | 37 s⁻¹ |  |  | 
C[C@@H](O)[C@H]1C(=O)N2C(C(=O)O)=C(S[C@@H]3CN[C@H](C(=O)N(C)C)C3)[C@H](C)[C@H]12 | 0.002% | 0.058% | 0.92% | 31% | 9.6% | 0.0079% | 44 M⁻¹ s⁻¹ | < 1.6% | 37% | 110 M⁻¹ s⁻¹ | 0.0024% | 0.0011% | 0.029% | < 0.031% | 90 µM | 0.0096 s⁻¹ | 8.8 µM | 0.00039 s⁻¹ | < 0.0063% | 1.1e-05% | Activity [19]: 18%; Activity [20]: 2.3e-05%; Activity [21]: 0.0022%; Activity [22]: 14.9%; Activity [7]: 0.00041%; Activity [23]: 0.00042%; Activity [24]: 0.00083%; Activity [25]: 1.2e-05%; Activity [28]: 0.27%; Activity [13]: 0.015%; Activity [29]: 0.0078%
Beta-lactamase VIM-2 (Pseudomonas aeruginosa) (from UniProt Q9K2N0) |  |  |  |  |  |  |  |  |  |  |  |  |  |  |  |  |  |  |  |  | Km [33]: 83 µM; kcat [33]: 2.4 s⁻¹; kcat/Km [34]: 29000 M⁻¹ s⁻¹
O=C(Cc1cccs1)N[C@@H]1C(=O)N2C(C(=O)O)=C(/C=C/c3ccc([N+](=O)[O-])cc3[N+](=O)[O-])CS[C@H]12 |  | 1800% |  |  |  |  |  |  |  |  |  |  |  |  |  |  |  |  | 160% | 240% | 
